Measured values: ChEMBL document CHEMBL1133152, “Design and synthesis of mimics of S-adenosyl-L-homocysteine as potential inhibitors of erythromycin methyltransferases” (Bioorg Med Chem Lett, 2000)

What was measured:
[1] = molecular target: T1, rRNA adenine N-6-methyltransferase (Streptococcus pneumoniae, UniProt P21236); assay: Inhibition of ErmAM methylase
T1 sequence (P21236 whole entry): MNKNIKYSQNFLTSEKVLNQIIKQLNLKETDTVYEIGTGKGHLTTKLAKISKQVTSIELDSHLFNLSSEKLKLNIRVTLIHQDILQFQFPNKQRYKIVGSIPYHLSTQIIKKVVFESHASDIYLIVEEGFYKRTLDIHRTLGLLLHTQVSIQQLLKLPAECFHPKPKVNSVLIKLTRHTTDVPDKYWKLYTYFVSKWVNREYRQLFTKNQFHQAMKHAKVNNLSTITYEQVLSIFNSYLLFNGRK

[2] = The compound was tested for its ability to inhibit ErmC methylase
[3] = The compound was tested for its binding ability to inhibit ErmAM methylase
[4] = The compound was tested for its ability to inhibit ErmC methylase at 100 uM
[5] = The compound was tested for its ability to inhibit ErmAM methylase at 100 uM
[6] = The compound was tested for its ability to inhibit ErmC methylase; Range 50-100

SMILES | Ki [1] [µM] | Ki [2] [µM] | Ki [3] [µM] | inhibition [4] [%] | inhibition [5] [%] | Ki [6] [µM]
Nc1nc(C[C@@H]2O[C@H](COC/C=C/c3ccccc3)[C@@H](O)[C@H]2O)nc(NC2Cc3ccccc3C2)n1 | ~90 | ~60 | – | – | – | –
Nc1nc(NC2Cc3ccccc3C2)nc(N2CCCCC2)n1 | – | – | 8 | – | – | –
Nc1nc(CC[C@@H]2O[C@H](COCc3ccc(Br)cc3)[C@@H](O)[C@H]2O)nc(NC2Cc3ccccc3C2)n1 | ~50 | – | – | 37.5 | 55 | 100
Nc1nc(NC2Cc3ccccc3C2)nc([C@H]2C[C@@H](O)[C@H](O)[C@H](OCc3ccccc3)C2)n1 | > 100 | > 100 | – | 17.7 | 9.9 | –
Nc1nc(CC2O[C@H](COCc3ccccc3)[C@@H](O)[C@H]2O)nc(NC2Cc3ccccc3C2)n1 (stereo not given in full) | > 100 | – | – | 5.5 | 16.9 | –
Nc1nc(C[C@@H]2O[C@H](COCc3ccc(Br)cc3)[C@@H](O)[C@H]2O)nc(NC2Cc3ccccc3C2)n1 | ~75 | ~40 | – | – | – | –
Nc1nc(CC2O[C@H](CSCc3ccc(Cl)cc3)[C@@H](O)[C@H]2O)nc(NC2Cc3ccccc3C2)n1 (stereo not given in full) | ~55 | ~80 | – | – | – | –
Nc1nc(NC2Cc3ccccc3C2)cc(-c2ccc(NCCCc3ccccc3O)cc2)n1 | – | – | 10 | – | – | –
Nc1nc(CC2O[C@H](CSCCc3ccccc3)[C@@H](O)[C@H]2O)nc(NC2Cc3ccccc3C2)n1 (stereo not given in full) | > 100 | – | – | 39.9 | 18 | 100
Nc1nc(CC2O[C@H](CSCc3ccccc3)[C@@H](O)[C@H]2O)nc(NC2Cc3ccccc3C2)n1 (stereo not given in full) | > 100 | > 100 | – | 10 | 10 | –
Cc1ccc(COC[C@H]2O[C@@H](Cc3nc(N)nc(NC4Cc5ccccc5C4)n3)[C@H](O)[C@@H]2O)cc1 | > 100 | > 100 | – | 0 | 15 | –
Nc1nc(CC2O[C@H](CSc3ccccc3)[C@@H](O)[C@H]2O)nc(NC2Cc3ccccc3C2)n1 (stereo not given in full) | > 100 | > 100 | – | 28 | 3.4 | –
